# Source: patent US20260218130A1, “METHOD FOR CULTURING ANIMAL CELLS” (Ajinomoto Co., Inc., priority 2023, published 2026)
# Legend:
# bovine muscle stem cells = assay: Proliferation of bovine muscle stem cells in serum-free medium; type: cell-based; conditions: FIG. 1
# Source text: Muscle tissue was collected from edible bovine shank meat, and CD56-positive cells were isolated using a Magnetic-Activated Cell Sorting (MACS) system to obtain bovine muscle stem cells. The bovine muscle stem cells obtained in (1-1) were suspended in a serum medium. As the serum medium, a medium was used in which Advanced DMEM (Thermo Fisher Scientific, Cat No. 12491015) was supplemented with 20% FBS (Thermo Fisher Scientific, Cat No. 10270106), 10% horse serum (Thermo Fisher Scientific, Cat No. 16050-130), and 1% GlutaMAX™ Supplement (Thermo Fisher Scientific, Cat No. 35050061). The cell suspension was seeded into a 12-well plate (BD FALCON, Cat #353046) coated with 1 μg/cm^2 fibronectin (Corning, Cat #F2006) at a cell density of 25,000 cells/0.2 mL, and the medium was changed every other day. On the fourth day of culture, the cells were subcultured into a hinokitiol-containing serum-free medium, a hinokitiol- and iron-containing serum-free medium, an iron-containing serum-free medium, a transferrin- and iron-containing serum-free medium, a transferrin-containing serum-free medium, or a serum-free medium not containing hinokitiol and transferrin, and the medium was changed every other day. […] Cell counting and subculturing were performed every 4 days, and the growth rate for two consecutive passages from day 4 to day 12 was calculated.
# [1] = system: porcine subcutaneous preadipocytes (PSPA); assay: Proliferation of porcine subcutaneous preadipocytes (PSPA) in serum-free medium; type: cell-based; conditions: hinokitiol 0.25 or 0.5 μM + FeSO4•7H2O 1 μM, serum-free medium (transferrin-free); 4 days; FIG. 2
# Procedure: As the porcine subcutaneous preadipocytes (PSPA), an adipose precursor cell line derived from porcine fetal subcutaneous tissue, described in Nakajima, et al. Biochem Biophys Res Commun. 2003 Sep. 26; 309(3): 702-8, was obtained from RIKEN RCB and used. The porcine subcutaneous preadipocytes (PSPA) from (2-1) were cultured using a serum medium. As the serum medium, a medium was used in which DMEM (Gibco, Cat No. 10313-021) was supplemented with 10% FBS (Thermo Fisher Scientific, Cat No. 10270106), 1% GlutaMAX™ Supplement (Thermo Fisher Scientific, Cat No. 35050061), and 1% Penicillin-Streptomycin (Nacalai Tesque, Cat No. 09367-34). As the serum-free medium, a medium based on the aforementioned E8 medium was used. PSPA were seeded into a 12-well plate at a density of 10,000 cells/cm^2, and the cells were subcultured into a serum medium, a transferrin-containing serum-free medium, or a hinokitiol- and iron-containing serum-free medium (transferrin-free), with medium exchange performed every other day. Cell counting was performed 4 days after the start of culturing, and the fold increase in cell number was calculated.
# HEK293 cells = assay: Proliferation of HEK293 cells in suspension culture system; type: cell-based, human; conditions: hinokitiol 500 nM in Basal 10 or in-house medium, 20 days, FIG. 3
# Procedure: As HEK293, Viral Production Cells 2.0 (Thermo Fisher Scientific: A49784), which is a clonal cell line derived from the HEK293 cell line, was used. The HEK293 cell line is widely known as a cell line derived from human embryonic kidney.
# Using a 125 mL Erlenmeyer flask (VIOLAMO, SEF125V), Viral Production Cells 2.0, a clonal cell line derived from the HEK293 cell line, were seeded into 30 ml of Viral Production Medium (Thermo Fisher Scientific: A4817901) supplemented with GlutaMAX™ Supplement (Thermo Fisher Scientific, Cat No. 35050061) to a final concentration of 4 mM.
# The cells were cultured with agitation in an incubator set at 37° C. and 8% CO2, and were subcultured twice. Thereafter, the cells were subcultured and cultured in a medium based on 30 mL of Basal 10 (Ajinomoto Healthy Supply, Co., Inc., CELLIST™ Basal media BASAL10) or an in-house medium supplemented with hinokitiol to a final concentration of 500 nM. The process of measuring the viable cell count every 3 or 4 days using a Vi-CELL BLU Cell Viability Analyzer (Beckman Coulter) before subculturing was repeated, and the cells were cultured for a total of 20 days.
# [2] = system: CD8-positive human T cells; assay: Proliferation of CD8-positive human T cells in serum-free medium; type: cell-based; conditions: hinokitiol 0.49 or 0.0049 μM, cell count after 7 days, FIG. 4
# Procedure: CD3 Monoclonal Antibody (Thermo Fisher Scientific, Cat No. 16-0037-85) was mixed with PBS and added to a 24-well plate. After incubating at 37° C. for 1 hour, the plate was washed 3 times with PBS. As a base medium, CTS™ OpTmizer™ T Cell Expansion (Thermo Fisher Scientific, Cat No. A104851) supplemented with CTS™ Immune Cell SR (Thermo Fisher Scientific, Cat No. A2596101), 200 mM L-glutamine (Thermo Fisher Scientific, Cat No. 25030081), P/S/Amphotericin B (Fujifilm-Wako, Cat No. 161-23181), and IL2 (PeproTech, Cat No. 200-02) was used. In the coated 24-well plates, medium groups with hinokitiol added as shown in Table 3 were prepared, and CD8+ T cells (LONZA, Cat No. 2W-300) were cultured in each respective group. A cell count was performed after 7 days, and the proliferation rate was calculated.
smiles,measurement,setting,value
CC(C)c1cccc(=O)c(O)c1 [hinokitiol],cell proliferation-promoting effect on enhancing the iron concentration,"bovine muscle stem cells; hinokitiol 0.03 or 0.30 μM + FeSO4•7H2O 1.0 or 10.1 μM, serum-free medium, in some cases",further improved
same,"cell proliferation (fold increase, growth rate for two consecutive passages)","bovine muscle stem cells; hinokitiol 0.03 or 0.30 μM in E8-based serum-free medium, transferrin-free, day 4 to day 12",cell proliferation-promoting effect
same,cell proliferation (fold increase in cell number),[1],cell proliferation-promoting effect
same,cell proliferation (viable cell count),HEK293 cells,cell proliferation-promoting effect
same,"cell proliferation (fold increase, proliferation rate)",[2],cell proliferation-promoting effect
